Experimental findings from patent US10064861B2, “Macrocyclic pyridazinone derivatives” (Merck Patent GmbH, priority 2013, dated 2018) are described below.

For data set [1] the following is noted: amide bond, DMF, 25.0 °C.
For data set [2] the following is noted: amide bond, DMF, 25.0 °C. The source holds these as a separate data set.
Data set [3] has as its target IRAK1 (Homo sapiens (Human), UniProt P51617). Nature of the data set: IRAK1 enzymatic assay. It counts as biochemical. Particulars: His-TEV-IRAK-1, ATP 1 μM, 3 hours at 30° C. The procedure:
IRAK1 is a human purified recombinant enzyme (His-TEV-IRAK1 (194-712)) In this assay, IRAK-1 hydrolyses ATP and autophosphorylates.
Measurement of IRAK-1 inhibition is performed in streptavidin coated 384 well FlashPlate (PerkinElmer #SMP410A).
His-TEV-IRAK-1 (15 ng/well), ATP (1 μM, [^33P]ATP 0.25 μCi/well) and compounds in DMSO (range of concentrations from 20 μM to 1 nM) or controls (2% DMSO) are incubated for 3 hours at 30° C. in assay buffer: Hepes pH 7.0 50 mM, Fatty acid-free BSA 0.1%, Dithiothreitol DTT 2 mM, MgCl2 10 mM, EGTA 0.5 mM, Triton-X-100 0.01%. Kinase reaction is stopped by addition of EDTA. Supernatant is discarded, plates are washed three times with 150 mM NaCl and radioactivity is then measured in a Microbeta Trilux reader.

The target of data set [4] is IRAK4 (Homo sapiens (Human), UniProt Q9NWZ3). As to the kind of experiment: IRAK4 enzymatic assay. It counts as biochemical. As to conditions: His-TEV-IRAK4, ATP 2 μM, STK1-biotin peptide 300 nM, 3 hours at 30° C. The procedure: IRAK4 is a human purified recombinant enzyme (His-TEV-IRAK1 (194-712) IRAK4 hydrolyses ATP, autophosphorylates and phosphorylates a Serine/Threonine generic peptidic substrate (STK: 61ST1BLC from CisBio International based in Bagnols/Cèze FR).
Sequence of IRAK4 (Q9NWZ3 whole entry): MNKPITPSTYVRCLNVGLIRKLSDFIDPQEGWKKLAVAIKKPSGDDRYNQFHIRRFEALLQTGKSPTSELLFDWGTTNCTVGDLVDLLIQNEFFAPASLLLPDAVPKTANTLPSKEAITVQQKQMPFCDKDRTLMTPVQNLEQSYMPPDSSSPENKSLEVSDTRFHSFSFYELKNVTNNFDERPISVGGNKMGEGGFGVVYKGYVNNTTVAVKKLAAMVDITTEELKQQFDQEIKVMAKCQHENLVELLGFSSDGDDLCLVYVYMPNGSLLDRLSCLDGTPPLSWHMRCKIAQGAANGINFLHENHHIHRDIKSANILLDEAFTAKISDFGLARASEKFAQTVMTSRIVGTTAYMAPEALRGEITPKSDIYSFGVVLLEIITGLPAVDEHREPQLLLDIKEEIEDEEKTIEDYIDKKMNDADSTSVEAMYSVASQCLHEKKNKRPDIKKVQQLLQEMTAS
Measurement of IRAK-4 inhibition is performed in streptavidin coated 384 well FlashPlate (PerkinElmer #SMP410A). His-TEV-IRAK4 (20 ng/well), ATP (2 μM, [^33P]ATP 0.25 μCi/well), STK1-biotin peptide (300 nM) and compounds in DMSO (range of concentrations from 20 μM to 1 nM) or controls (2% DMSO) are incubated for 3 hours at 30° C. in assay buffer: Hepes pH 7.0 50 mM, Fatty acid-free BSA 0.1%, Dithiothreitol DTT 2 mM, MgCl2 10 mM, EGTA 0.5 mM, Tween-20 0.01%, MnCl2 5 mM.
Kinase reaction is stopped by addition of EDTA. Supernatant is discarded, plates are washed three times with 150 mM NaCl and radioactivity is then measured in a Microbeta Trilux reader.

In data set [5] the test system is TLR7 induced IL-6 secretion in human mononuclear cells (PBMC's). As to the kind of experiment: TLR7 induced IL-6 in human PBMC's. It counts as cell-based. Particulars: TLR7 specific ligand 2 uM overnight, IL-6 AlphaLISA. The procedure: TLR7 Induced IL-6 in Human PBMC's
Human PBMC assay is used as one of the functional assay to monitor the activity of IRAK1 and IRAK4 small molecule inhibitors on TLR7 induced IL-6 secretion in human mononuclear cells (PBMC's). Human PBMCs are prepared from buffy coats (whole blood enriched with leukocytes and platelets) obtained from healthy volunteers used either fresh or frozen are plated in assay media (RPMI+2% P/S/L-glu+10% HI-FBS) and pre-treated with compounds in DMSO/media (range of concentrations from 25 μM to 0.4 nM) or controls (0.25% DMSO) for 30 minutes at 37° C. in assay media. Following pre-treatment with IRAK1 and IRAK4 inhibitors, PBMC's are stimulated with TLR7 specific ligand (2 uM) overnight (16-18 hrs) at 37° C. After incubation supernatant is transferred to 384 well PE AlphaPlate-384 (6005350) and IL-6 is quantified using Perkin Elmer IL-6 Alpha LISA kit (AL223C). Plates are read on an Envision® plate reader with Alpha Technology®.

pIC50: −log10 of the molar value. Read-outs that look alike come from different tables or passages of the source. A value given as a limit tells only on which side of the number the result lay.

Broadly, the pIC50 is the IC50 on a negative log10 scale, so that one unit is a factor of ten.

Sequence of IRAK1 (P51617 194-712): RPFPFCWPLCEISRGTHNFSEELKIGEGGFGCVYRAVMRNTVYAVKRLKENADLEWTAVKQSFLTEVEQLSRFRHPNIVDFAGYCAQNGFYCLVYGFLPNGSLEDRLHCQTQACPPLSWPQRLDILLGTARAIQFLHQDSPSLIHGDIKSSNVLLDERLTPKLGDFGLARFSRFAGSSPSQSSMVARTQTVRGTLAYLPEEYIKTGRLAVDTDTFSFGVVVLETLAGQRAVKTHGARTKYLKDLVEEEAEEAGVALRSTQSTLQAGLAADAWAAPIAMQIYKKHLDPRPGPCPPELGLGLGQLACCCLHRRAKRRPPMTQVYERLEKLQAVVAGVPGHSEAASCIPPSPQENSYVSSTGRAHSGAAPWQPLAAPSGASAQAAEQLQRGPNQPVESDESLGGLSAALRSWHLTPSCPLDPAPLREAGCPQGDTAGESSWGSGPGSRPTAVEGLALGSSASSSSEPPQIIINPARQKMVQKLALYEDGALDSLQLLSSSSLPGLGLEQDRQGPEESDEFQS

`O=C1Nc2nc3ccccc3n2CC(O)CCOc2ccc(=O)n(n2)Cc2cccc1c2` (centres unmarked) [Compound 18, 20-hydroxy-23-oxa-1,9,11,18,28-pentaazapentacyclo[22.3.1.1^3,7.0^10,18.0^12,17]nonacosa-3,5,7(29),10,12(17),13,15,24(28),25-nonaene-8,27-dione] showed a ring closure, isolated yield in data set [1] (from potassium 3-{3-[4-(2-Amino-benzoimidazol-1-yl)-3-hydroxy-butoxy]-6-oxo-6H-pyridazin-1-ylmethyl}-benzoic acetate, 16-membered ring, HATU/HOAt/DMAP/DIEA, 2.4 mM) of 7%. The same compound yielded a ring closure, yield of all isomers in data set [2] (from Nc1nc2ccccc2n1CC(O)CCOc1ccc(=O)n(Cc2cccc(C(=O)O)c2)n1, HATU/HOAt/DMAP/DIPEA, 2.44 mM, 14.0 h) of 7%. Also, the negative logarithm of the IC50 (pIC50) is more than 7.00 in data set [3], more than 7.00 in data set [4] and 6.00 to 7.00 in data set [5].

Consider `O=C1Nc2nc3ccccc3n2Cc2cc(ccc2O)-c2ccc(=O)n(n2)Cc2cccc1c2` [Compound 20, 5-hydroxy-8,15,17,25,29-pentaazahexacyclo[23.3.1.1^2,6.1^19,23.08,16.0^9,14]hentriaconta-1(29),2(31),3,5,9(14),10,12,15,19(30),20,22,27-dodecaene-18,26-dione], for which the pIC50 in data set [3], in data set [4] and in data set [5] was more than 7.00 throughout.

Take `COc1cc2nc3n(c2cc1OC)Cc1cccc(c1)-c1ccc(=O)n(n1)Cc1cccc(c1)C(=O)N3` [Compound 5, 11,12-dimethoxy-8,15,17,25,29-pentaazahexacyclo[23.3.1.1^2,61^19,23.0^8,16.0^9,14]hentriaconta-1(29),2(31),3,5,9(14),10,12,15,19(30),20,22,27-dodecaene-18,26-dione]: the pIC50 in data set [3], in data set [4] and in data set [5] was more than 7.00 each time.

In turn, `O=C1Nc2nc3ccccc3n2Cc2cccc(c2)-c2ccc(=O)n(n2)Cc2cccc1c2` [Compound 1, 8,15,17,25,29-pentaazahexacyclo[23.3.1.1^2,61^19,230^8,160^9,14]hentriaconta-1(29),2(31),3,5,9(14),10,12,15,19(30),20,22,27-dodecaene-18,26-dione] registered a ring closure, isolated yield in data set [1] (from Nc1nc2ccccc2n1Cc1cccc(-c2ccc(=O)n(Cc3cccc(C(=O)[O-])c3)n2)c1, 15-membered ring, HBTU/HOBt/NMM, 10.0 mM) of 26%. In data set [2] (from Nc1nc2ccccc2n1Cc1cccc(-c2ccc(=O)n(Cc3cccc(C(=O)O)c3)n2)c1, HBTU/HOBt/N-methylmorpholine, 10.0 mM, 15.0 h), this compound yielded a ring closure, yield of all isomers of 26%. In addition, the negative logarithm of the IC50 (pIC50) in data set [3] was more than 7.00; in data set [4] it was more than 7.00; in data set [5], 6.00 to 7.00.

Consider `CC(=O)NCCc1ccc2c(c1)nc1n2Cc2cccc(c2)-c2ccc(=O)n(n2)Cc2cccc(c2)C(=O)N1` [Compound 25], for which the pIC50 in data set [3], in data set [4] and in data set [5] was more than 7.00 in each case.

Regarding `Cc1ccc2cc1-c1ccc(=O)n(n1)Cc1cccc(c1)C(=O)Nc1nc3ccccc3n1C2` [Compound 8, 3-Methyl-8,15,17,25,29-pentaazahexacyclo[23.3.1.1^2,61^19,230^8,160^9,14]hentriaconta-1(29),2(31),3,5,9(14),10,12,15,19(30),20,22,27-dodecaene-18,26-dione], the pIC50 in data set [3] was more than 7.00; in data set [4] it was more than 7.00; in data set [5] it was 6.00 to 7.00.

As to `O=C(O)c1ccc2c(c1)nc1n2Cc2cccc(c2)-c2ccc(=O)n(n2)Cc2cccc(c2)C(=O)N1` [Compound 21], the pIC50 is more than 7.00 in data set [3], more than 7.00 in data set [4] and 6.00 to 7.00 in data set [5].

For the compound `O=C1Nc2nc3ccccc3n2CCc2cccc(c2)-c2ccc(=O)n(n2)Cc2cccc1c2` [Compound 2, 6,14,16,23,32-pentaazahexacyclo[24.3.1.1^2,6.1^8,12.0^15,23.0^17,22]dotriaconta-1(30),2(32),3,8,10,12(31),15,17(22),18,20,26,28-dodecaene-5,13-dione], the pIC50 in data set [3] is more than 7.00; in data set [4], more than 7.00; in data set [5], 6.00 to 7.00.

Take `O=C1Nc2nc3ccccc3n2CC(O)C2CCCN(C2)c2ccc(=O)n(n2)Cc2cccc1c2` (centres unmarked): the ring closure, isolated yield in data set [1] (from Nc1nc2ccccc2n1CC(O)C1CCCN(c2ccc(=O)n(Cc3cccc(C(=O)[O-])c3)n2)C1, 16-membered ring, HATU/HOAt/DMAP/DIEA, 1.27 mM) worked out at 16%.

Regarding `O=C1Nc2nc3ccccc3n2Cc2ccc(O)c(c2)-c2ccc(=O)n(n2)Cc2cccc1c2` [Compound 12, 3-hydroxy-8,15,17,25,29-pentaazahexacyclo[23.3.1.1^2,6.1^19,23.0^8,16.0^9,14]hentriaconta-1(29),2(31),3,5,9(14),10,12,15,19(30),20,22,27-dodecaene-18,26-dione], the pIC50 in data set [3] is more than 7.00; in data set [4] it was more than 7.00; in data set [5], 5.30 to 6.00.

On to `O=C1Nc2nc3ccccc3n2C[C@H](O)[C@@H]2CCCN(C2)c2ccc(=O)n(n2)Cc2cccc1c2` (stereo in doubt) [Compound 32a, 25-hydroxy-1,6,14,16,23,32-hexaazahexacyclo[24.3.1.1^2,6.1^8,12.0^15,23.0^17,22]dotriaconta-2(32),3,8(31),9,11,15,17(22),18,20-nonaene-5,13-dione], for which the results for the pIC50 in data set [3], in data set [4] and in data set [5] were more than 7.00, more than 7.00 and 6.00 to 7.00, respectively.

As for `O=C1Nc2nc3ccccc3n2C[C@H](O)[C@H]2CCCN(C2)c2ccc(=O)n(n2)Cc2cccc1c2` (stereo in doubt) [Compound 32b, 25-hydroxy-1,6,14,16,23,32-hexaazahexacyclo[24.3.1.1^2,6.1^8,12.0^15,23.0^17,22]dotriaconta-2(32),3,8(31),9,11,15,17(22),18,20-nonaene-5,13-dione], the pIC50 in data set [3] is more than 7.00; in data set [4], more than 7.00; in data set [5] it was 6.00 to 7.00.

For `O=C1Nc2nc3ccccc3n2CC(O)c2cccc(c2)-c2ccc(=O)n(n2)Cc2cccc1c2` (centres unmarked) [Compound 17], the pIC50 in data set [3], in data set [4] and in data set [5] was more than 7.00 in each case.
